Entries after “also recorded” stand apart in the source; their conditions may differ.
Columns and labels:
C. elegans [1] = details: cited from earlier work
C. elegans males = experiment: Attraction assay (long-range, point source); format: in vivo; details: 10 cm plate
Protocol: 10 cm standard chemotaxis plates were prepared (Bargmann et al., Cell 74:515-27 (1993), which is hereby incorporated by reference in its entirety) and stored at 4° C. until the day before use. Standard 1 cm-diameter copper pipes were sectioned into 1 cm-tall segments to use for the holding chambers. The females/hermaphrodites were isolated overnight, washed 3 times in M9 buffer, and then allowed to wander on a plate pre-conditioned with 50 uL of 1000× treptomycin for 2 hours to kill any bacteria that might produce a false positive attractant. The nematodes were then washed 3 times, and the supernatant from the last wash was placed in a copper chamber, as the control, 1 cm from the border of the 10 cm plate. The nematodes were suspended in M9 within the copper chamber, 1 cm from the border opposite the control chamber. After 6 hours, they were subsequently removed and replaced with 3 μL of 1M sodium azide. 100 C. elegans adult males were isolated overnight, washed several times in ddH2O, and placed at the center of the agar plate. After several hours, males paralyzed within 2 cm of each region were scored. The Chemotaxis Index (Bargmann et al., Cell 74:515-27 (1993), which is hereby incorporated by reference in its entirety) was then used to score male chemotaxis to either point source.

S. feltiae = experiment: Ascaroside function (Table 12); format: in vivo, Steinernema feltiae; details: listed = has this function
Protocol: (§1) Various ascarosides and ascaroside blends were administered to various nematodes described below (Table 12). […] A very strong result of affecting nematode behavior is designated in the table as “strong.”

C. elegans dauer larvae = experiment: Dispersal assay; format: in vivo; details: physiological concentration; 0.25% E. coli added; food-only control approximately 35%
Protocol: C. elegans dauer juveniles were washed with MILLI-Q water 3 times, placed into 6 cm petri dishes with a small amount of water, and rested overnight. Approximately 200-300 nematodes in 10 μl of water were placed on an agar plate, to which 2 μl of treatment was added. The liquid culture that produced 60% dauer animals was centrifuged, filtered with a 0.45 μm filter, and used as a positive control for dispersal. Thereafter, media were lyophilized and resuspended in MILLI-Q water 5 times. 2 μl to 10 μl of nematode suspension was used for the assay. As a negative control, 0.5% E. coli (HB101) was prepared in S-complete, lyophilized, and adjusted to the final volume of 0.25% E. coli in the assay.
Nematodes were quantified using Image J software (Image Processing and Analysis in Java, National Institutes of Health). The number of nematodes visualized and counted using Image J is illustrated in FIG. 63B. Nematodes inside the circle were subtracted manually from the total number of worms counted because of the location of their placement. Each treatment was replicated 9-11 times. The graph was normalized to the positive control, the dauer conditioned medium.
A synthetic blend of these ascarosides was then tested for dispersal activity, using the dauer conditioned medium as a positive control. The media was estimated to contain approximately half of the original 0.5% E. coli (HB101) food source. […]

C. elegans [2] = experiment: Ascaroside function (Table 12); format: in vivo, Caenorhabditis elegans; design: key to Attract Females/Herm. / Promote Dauer Formation / Attract Males: A very strong result of affecting nematode behavior is designated in the table as “strong.”; details: listed = has this function
Protocol: as §1

C. elegans [3] = details: in vivo; cited from earlier work
[4] = test system: Several of the tested nematode species; experiment: Retention assay; format: in vivo; details: 1 nM, 1 μM and 1 mM tested
Protocol: (§2) OP50 E. coli was grown on a standard 5 cm agar plate (made with standard Nematode Growth Medium). The bacterial lawn was 16 mm in diameter and was grown overnight at 20° C. before being used in trials. Two 4 mm spots (0.6 μL) were placed on opposite sides of the bacterial lawn (using a transparent template to guide spot placement), and several minutes elapsed for the liquid to settle in before placing nematodes down on the assay. Recording began immediately upon worm placement. 0.6 μL of the control was placed on one side of the lawn, and 0.6 μL of the experimental cue was placed on the other side of the lawn, changing the location of the cue throughout trials between left/right and top/bottom to avoid bias.
(§3) Nematodes were isolated by gender at the L4 stage the day before being used in trials as developed adults. Worms were evenly divided and placed at two points equidistant from the foci of the scoring region. Trials were recorded for 20 minutes, and frames were collected for analysis at 1 frame per second. Results were averaged from at least three different trials. For every nematode species in this study, a different total number of worms (using water in both scoring regions) was tested to determine the minimum number of worms necessary for consistent unbiased results over a 20 minute trial. The total number of worms used in the multiple species assays depended on that species' optimal parameters. 10 worms were used for P. redivivus males and females, 20 worms were used for C. elegans males and O. dolichuridae males, and 14 worms were used for S. glaseri males. The Automated Software was used to compare worm occupancy in each scoring region over time, and the Chemotaxis Index (Bargmann et al., Cell 74:515-27 (1993), which is hereby incorporated by reference in its entirety) was adapted to score preference or avoidance to each ascaroside.
(§4) A video camera attached to the microscope produced a digital video stream, which was then analyzed. The ratio of the time the average worm spent in each region of interest was calculated for every trial. For ease of implementation, all worms in a single experiment were assumed to be roughly the same size. Thus worm pixels were counted instead of whole worms, allowing fractions of a worm in the region of interest to be taken into account. It also eliminated the need for a shape-based worm identification algorithm, and allowed each frame to be analyzed independently. A band-pass filter was applied to each frame to eliminate the effect of uneven lighting and also accentuate the worms against the background. The worm was then identified after thresholding the filtered image. Throughout each experiment, the locations and sizes of the regions of interest were known. Through the filtering described above, it is known which pixels are occupied by worms and which ones are not. Thus, the ratio of worm-pixels to all pixels inside the region of interest can be calculated to produce the worm-occupancy ratio. This calculation was done for every frame, giving a plot output of worm-occupancy ratio vs. time for each region.

S. glaseri = experiment: Ascaroside function (Table 12); format: in vivo; details: listed = has this function
Protocol: as §1

Panagrellus redivivus = experiment: Ascaroside function (Table 12); format: in vivo; details: listed = has this function
Protocol: as §1

C. elegans [5] = experiment: Spot attraction assay; format: in vivo
Protocol: The spot attraction assays were conducted according to a previously reported method (Pungaliya et al., PNAS 106:7708-13 (2009); Srinivasan et al., Nature 454:1115-18 (2008), which are hereby incorporated by reference in their entirety). For both C. elegans hermaphrodites and males, 50-60 worms were harvested daily at the fourth larval stage (L4) and stored segregatedly by sex at 20° C. overnight, to be used as young adults the following day. For the competition experiments, two conditions were used: 120 nM ascr#3 and 10 nM icas#3 (Condition 1), or 12 μM ascr#3 and 1 μM icas#3 (Condition 2) in water containing 10% ethanol. Aliquots were stored at −20° C. in 20 μL tubes. 10% ethanol in water was used as control.
Attraction assays with hbas#3 were conducted as previously reported (Srinivasan et al., Nature 454:1115-18 (2008); Pungaliya et al., Proc. Natl. Acad. Sci. U.S.A. 106:7708-13 (2009), which are hereby incorporated by reference in their entirety). For the attraction assays, 50-60 hermaphrodite worms were harvested daily at the early fourth larval stage (L4) and stored at 20° C. overnight to be used as young adults the following day. Hbas#3 was dissolved in water containing 10% ethanol. Aliquots were stored at −20° C. in 20 μL tubes. 10% ethanol in water was used as control.

[6] = test system: P. redivivus males and females; experiment: Retention assay; format: in vivo
Protocol: as §2, §3, §4

C. elegans [7] = experiment: Aggregation assay; format: in vivo
Protocol: Aggregation behavior of worms was measured using assays reported in de Bono & Bargmann, Cell 94:679-89 (1998), which is hereby incorporated by reference in its entirety. Aggregation assays were conducted on standard NGM plates. Plates containing indole ascarosides were made by adding the indole ascaroside stock solution to the NGM media before they were poured onto the plates. These plates were dried at room temperature for 2 to 3 days. Control plates were treated similarly, except that ethanol solutions instead of icas solutions were added to the plates, corresponding to the amount of ethanol introduced via the icas solutions. Final ethanol concentrations of the plates were below 0.1% for all conditions. After drying, both control plates and plates containing indole ascarosides were seeded with 150 μl of an overnight culture of E. coli OP50 using a micropipette, and were allowed to dry for 2 days at room temperature. For “low worm density” experiments, 20 worms were placed onto the lawn and left at 20° C. for 3 hours. For “high worm density” experiments, approximately 120 worms were placed onto the bacterial lawn and left at 20° C. for 3 hours. Aggregation behavior was quantified as the number of animals that were in touch with two or more animals at greater than 50% of their body length.

**Q.** What does the source list for `CC(=O)CCC[C@@H](C)O[C@@H]1O[C@@H](C)[C@H](O)C[C@H]1O` [ascr#2]?
**A.** most active amount for attraction (C. elegans [1]; from 1 μM concentration): ~1 pmol; amount as low as which elicited C. elegans male attraction (C. elegans males): 500 attomol; male attraction from a distance (C. elegans males): chemotax towards; Dispersal (of dauer larvae, infectious juveniles) (S. feltiae): ascr#2; dispersing nematodes, normalized to the percent of the positive control response (C. elegans dauer larvae): 40%; Attract Males (C. elegans [2]): ascr#2; Dispersal (of dauer larvae, infectious juveniles) (C. elegans [2]): ascr#2; Promote Dauer Formation (C. elegans [2]): ascr#2 ([strong]); dauer-inducing activity (C. elegans [3]): individually promote dauer entry

**Q.** Which male attraction (C. elegans [1]; in vivo) does the source give for `C[C@H](CC/C=C/C(=O)Nc1ccc(C(=O)O)cc1)O[C@@H]1O[C@@H](C)[C@H](O)C[C@H]1O` [ascr#8] here?
**A.** major component of the male-attracting signal

**Q.** And the “male attraction from a distance” value (C. elegans males)?
**A.** not active

**Q.** And the “preference for ascaroside-conditioned areas” value [4]?
**A.** preferred areas conditioned

**Q.** What about the “Attract Males” value (S. glaseri) of the same compound?
**A.** ascr#8

**Q.** What about the “Attract Females/Herm.” value (Panagrellus redivivus) of the same compound?
**A.** ascr#8

**Q.** And the “Attract Males” value (Panagrellus redivivus)?
**A.** ascr#8

**Q.** And the “Dispersal (of dauer larvae, infectious juveniles)” value (from here on “Dispersal”) (S. feltiae)?
**A.** ascr#8

**Q.** What about the “dispersing nematodes, normalized to the percent of the positive control response” value (C. elegans dauer larvae) of the same compound?
**A.** 50%

**Q.** What about the “Attract Males” value (C. elegans [2]) of the same compound?
**A.** ascr#8

**Q.** What about the “Dispersal” value (C. elegans [2]) of the same compound?
**A.** ascr#8

**Q.** And the “Promote Dauer Formation” value (C. elegans [2])?
**A.** ascr#8 ([strong])

**Q.** And the dauer-inducing activity (C. elegans [3])?
**A.** individually promote dauer entry

**Q.** Which “attraction in spot attraction assay” value (C. elegans [5]; 1 pmol (high concentrations), N2 hermaphrodites and him-5 males) does the source give for `C[C@H](CCC(=O)O)O[C@@H]1O[C@@H](C)[C@H](OC(=O)c2c[nH]c3ccccc23)C[C@H]1O` [icas#9] here?
**A.** attractive to both C. elegans sexes; also recorded: attracted both males and hermaphrodites

**Q.** And the attraction of hermaphrodites (C. elegans [5]; low concentrations, N2 hermaphrodites)?
**A.** strongly attracted

**Q.** What about the attraction of males (C. elegans [5]; low concentrations, males) of the same compound?
**A.** males are not attracted

**Q.** And the aggregation (C. elegans [1]; in vivo)?
**A.** aggregating stimulant

**Q.** And the “response of P. redivivus males” value [6]?
**A.** no response

**Q.** And the “Repel Females/Herm.” value (Panagrellus redivivus)?
**A.** icas#9

**Q.** What about the “aggregation of solitary and social hermaphrodites” value (C. elegans [7]; constant background concentration) of the same compound?
**A.** increased aggregation; also recorded: strongly increased the propensity

**Q.** What about the “concentration window for hermaphrodite attraction and aggregation” value (C. elegans [7]; in vivo) of the same compound?
**A.** femtomolar to picomolar

**Q.** And the “Dispersal” value (S. feltiae)?
**A.** icas#9

**Q.** What about the “Attract Females/Herm.” value (C. elegans [2]) of the same compound?
**A.** icas#9 ([strong])

**Q.** And the “Attract Males” value (C. elegans [2])?
**A.** ([strong])

**Q.** What about the “Promote Dauer Formation” value (C. elegans [2]) of the same compound?
**A.** icas#9

**Q.** What about the dauer-inducing activity (C. elegans [3]) of the same compound?
**A.** moderate dauer-inducing activity; also recorded: individually promote dauer entry
